Molecules are shown by their SMILES. Read-outs that look alike come from different tables or passages of the source.

We go through seven molecules from publication PMC10023787, “Trio-pharmacophore DNA-encoded chemical library for simultaneous selection of fragments and linkers” (Nature Communications, 2023).

Common to all, as to assay type: biochemical
The target in assay [1] is T1, bovine trypsin (Bos taurus, UniProt P00760).
T1 construct: purchased Sigma-Aldrich T8003
T1 sequence (P00760 24-246): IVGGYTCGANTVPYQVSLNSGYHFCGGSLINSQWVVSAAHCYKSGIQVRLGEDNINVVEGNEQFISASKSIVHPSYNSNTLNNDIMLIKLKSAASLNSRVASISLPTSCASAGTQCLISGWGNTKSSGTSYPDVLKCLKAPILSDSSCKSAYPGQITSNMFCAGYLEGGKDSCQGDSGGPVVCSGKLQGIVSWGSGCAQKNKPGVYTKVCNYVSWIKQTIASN
Put plainly: Trypsin inhibition assay (proteolytic activity on BApNA). The following applies: fraction of uninhibited activity. Here is the method: The inhibition by the benzamidine derivatives against trypsin was measured using an assay probing the enzyme proteolytic activity on the substrate Nα-Benzoyl-DL-arginine-4-nitroanilide hydrochloride (BApNA). […] 5 µl of BApNA solution (10 mM, dissolved in DMSO) were added immediately prior to the measurement. The final total volume was 100 µl per well. The measurements were performed in a Low Binding 384-well plate. The absorption was measured at 410 nm in intervals of 10 sec for 15 min at 37 °C using a Beckman Coulter’s Paradigm Detection Platform (Brea, USA). The measurements were performed in triplicate. The activity of trypsin was calculated by the hydrolysis rate of BApNA after subtraction of the background-hydrolysis rate. The curves were plotted as a function of the concentration of the inhibitor against the relative enzyme activity. Vmax was derived from the detected absorption signal for each concentration and logistic fitting was performed to obtain IC50 values using Origin 2019b (OriginLab).

The target in assay [2] is T2, MMP-2 (Homo sapiens, UniProt P08253).
T2 construct: purchased Sino Biological 10082-HNAH
T2 sequence (P08253 110-660): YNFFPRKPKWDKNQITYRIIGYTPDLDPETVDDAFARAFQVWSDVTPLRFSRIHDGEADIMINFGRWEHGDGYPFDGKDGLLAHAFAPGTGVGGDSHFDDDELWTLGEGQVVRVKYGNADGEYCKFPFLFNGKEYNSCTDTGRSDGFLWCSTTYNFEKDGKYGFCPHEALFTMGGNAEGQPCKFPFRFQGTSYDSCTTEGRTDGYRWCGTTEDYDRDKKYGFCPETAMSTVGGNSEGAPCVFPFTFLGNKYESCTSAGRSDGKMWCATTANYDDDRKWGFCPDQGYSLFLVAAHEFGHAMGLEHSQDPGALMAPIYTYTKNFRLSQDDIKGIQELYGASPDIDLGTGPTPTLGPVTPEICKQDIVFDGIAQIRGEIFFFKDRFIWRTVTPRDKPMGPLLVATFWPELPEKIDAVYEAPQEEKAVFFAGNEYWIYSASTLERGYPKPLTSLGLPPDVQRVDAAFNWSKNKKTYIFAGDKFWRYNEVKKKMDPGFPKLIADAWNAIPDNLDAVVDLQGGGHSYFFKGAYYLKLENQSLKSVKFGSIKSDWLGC
The experiment in a line: MMP-2 inhibition assay (fluorogenic peptide substrate). Conditions: for IC50: n.d: not detected; for remaining activity (%): MMP-2. Summed up: (§1)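 Human proMMP-2 and proMMP-9 were activated with 1 mM APMA (37 °C, 2 h), then used at 6.5 nM (MMP-2) or 10 nM (MMP-9) in Tris/NaCl/CaCl2/Brij 35 buffer, pH 7.5. Enzyme was preincubated with compound 30 min at RT; 25 μM DNP-Pro-Leu-Gly-Met-Trp-Ser-Arg substrate was added and fluorescence (ex 280/em 360 nm) followed 30 min. IC50 from logistic fits of Vmax.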

In assay [3] the target is T3, MMP-9 (Homo sapiens, UniProt P14780).
T3 construct: purchased Sino Biological 10327-HNAH
Put plainly: MMP-9 inhibition assay (fluorogenic peptide substrate). On the set-up: remaining enzyme activity (% of control): scale not given here. Conditions: for IC50: n.d: not detected; for remaining enzyme activity (% of control): MMP-9. Summed up: as §1

The mark [4] stands for this setting: Figure 5d, fragment combination joined by linker, read-out: MMP2 IC50.
[5] abbreviates: Figure 5d, fragment combination joined by linker, read-out: MMP9 IC50.

T3 sequence (P14780 107-707 limits assumed): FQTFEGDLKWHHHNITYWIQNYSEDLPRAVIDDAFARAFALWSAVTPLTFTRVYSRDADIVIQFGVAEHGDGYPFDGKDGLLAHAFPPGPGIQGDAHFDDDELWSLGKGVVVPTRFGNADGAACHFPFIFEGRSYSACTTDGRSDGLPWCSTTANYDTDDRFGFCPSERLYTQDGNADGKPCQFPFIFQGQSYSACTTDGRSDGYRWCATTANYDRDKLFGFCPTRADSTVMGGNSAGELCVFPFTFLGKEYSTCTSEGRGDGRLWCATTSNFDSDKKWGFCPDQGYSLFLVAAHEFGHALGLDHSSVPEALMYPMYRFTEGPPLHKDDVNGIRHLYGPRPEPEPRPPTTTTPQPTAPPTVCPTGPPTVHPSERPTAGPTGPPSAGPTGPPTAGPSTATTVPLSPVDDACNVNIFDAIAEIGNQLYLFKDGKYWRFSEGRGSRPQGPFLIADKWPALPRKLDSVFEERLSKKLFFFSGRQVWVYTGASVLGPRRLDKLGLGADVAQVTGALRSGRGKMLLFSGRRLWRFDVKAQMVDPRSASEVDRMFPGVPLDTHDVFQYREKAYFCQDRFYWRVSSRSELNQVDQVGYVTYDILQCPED

For `N=C(N)c1ccc(CNC(=O)C2CCC(C(=O)NCCNC(=S)Nc3cccc(I)c3)CC2)cc1` (centres unmarked) [Compound T-4], the “mean (Figure 3c, dose-response, relative trypsin activity)” value in assay [1] (Concentration 0.1024 nM) was 0.916; in assay [1] (Concentration 0.512 nM), 1.0035; in assay [1] (Concentration 2.56 nM), 1.023; in assay [1] (Concentration 64 nM), 0.976; in assay [1] (Concentration 320 nM), 0.9546; in assay [1] (Concentration 1600 nM) it was 0.8556. Besides, the “mean (Figure 3c, dose-response, relative trypsin activity)” value in assay [1] (Concentration 8000 nM) was found to be 0.5625; in assay [1] (Concentration 40000 nM), 0.1537; in assay [1] (Concentration 200000 nM), 0.03111; in assay [1] (Concentration 440000 nM) it was 0.01768; in assay [1] (Concentration […]) it was 0.9246.

On to `N=C(N)c1ccc(CNC(=O)CCCC(=O)NCCNC(=S)Nc2cccc(I)c2)cc1` [Compound T-1], for which the “mean (Figure 3c, dose-response, relative trypsin activity)” value stood at 0.9598 in assay [1] (Concentration 0.1024 nM); 1.038 in assay [1] (Concentration 0.512 nM); 1.032 in assay [1] (Concentration 2.56 nM); 1.057 in assay [1] (Concentration 64 nM); 1.07 in assay [1] (Concentration 320 nM); 0.9365 in assay [1] (Concentration 1600 nM). Moreover, the “mean (Figure 3c, dose-response, relative trypsin activity)” value in assay [1] (Concentration 8000 nM) amounted to 0.7184; in assay [1] (Concentration 40000 nM), 0.2303; in assay [1] (Concentration 200000 nM), 0.05821; in assay [1] (Concentration 830000 nM) it was 0.00834; in assay [1] (Concentration […]), 1.021.

In general, IC50 refers to the concentration needed to halve the response being measured. For `O=C(CSCCNC(=O)Cn1cnc2c(oc3ccccc32)c1=O)NCc1c[nH]nn1` [182_787 24], the results for the IC50 in assay [2] (setting [4]) and in assay [3] (setting [5]) were 45.9 µM and 126 µM, respectively.

Consider `Cn1c(O)nc2cc(C(=O)NCCCCC=CC(=O)CC(=O)NCCNC(=O)Cn3cnc4c(oc5ccccc54)c3=O)cnc21` [182_826 12], for which the IC50 is 62.3 µM in assay [2] (setting [4]) and 131 µM in assay [3] (setting [5]).

In the case of `Cc1cc(=O)[nH]c(-n2nc(C)c(CCC(=O)NCCNC(=O)c3cncc(O)c3)c2C)n1` [693+828 Linker 1], the “remaining activity (%)” value was 92.49 in assay [2] (concentration 0.0153 µM); 86.73 in assay [2] (concentration 0.08 µM); 90.73 in assay [2] (concentration 0.38 µM); 83.36 in assay [2] (concentration 1.91 µM); 76.57 in assay [2] (concentration 9.54 µM); 66.74 in assay [2] (concentration 47.72 µM). Also, the “remaining activity (%)” value in assay [2] (concentration 238.60 µM) is 28.54; in assay [2] (concentration 1193.00 µM), 3.05. Also, the IC50 in assay [2] (mean ± SE, Fig. 5d unit inferred, µM, read-out: IC50) worked out at 110 ± 13.3 µM; in assay [3] (mean ± SE, Fig. 5e prints no unit, µM, read-out: IC50), 232 ± 35.2 µM. For the same molecule, the “remaining enzyme activity (% of control)” value in assay [3] (concentration 0.08 µM) worked out at 98.15; in assay [3] (concentration 0.38 µM), 101.08; in assay [3] (concentration 1.91 µM) it was 93.24; in assay [3] (concentration 9.54 µM), 99.31; in assay [3] (concentration 47.72 µM), 78.04; in assay [3] (concentration 238.60 µM), 51.23. Also, the “remaining enzyme activity (% of control)” value in assay [3] (concentration 1193.00 µM) is 4.04.

With `Cc1cc(=O)[nH]c(-n2nc(C)c(CCC(=O)NCCCCCCCCNC(=O)CCC(=O)NCc3c[nH]nn3)c2C)n1` [693_787 4], the figures for the IC50 in assay [2] (setting [4]) and in assay [3] (setting [5]) were 169 µM and 250 µM, respectively.

In the case of `Cc1cc(=O)[nH]c(-n2nc(C)c(CCC(=O)NCCNC(=O)CC(=O)/C=C/CCCCNC(=O)c3cnc4c(c3)nc(O)n4C)c2C)n1` [693_826 12], the IC50 turned out to be 210 µM in assay [2] (setting [4]) and 58.9 µM in assay [3] (setting [5]).
